Measurements as given in US20150290231A1, “COMPOSITION FOR INHIBITING CELLULAR SENESCENCE COMPRISING QUERCETIN-3-O-beta-D-GLUCURONIDE” (INDUSTRY-ACADEMIC COOPERATION FOUNDATION, YEUNGNAM …, priority 2012, published 2015).

Columns and labels:
[1] = tested on: p21; assay: Western blot of p21 in adriamycin-treated HDFs; type: cell-based, human; conditions: Q3GA 1 h prior to adriamycin 500 nM 4 h, concentration-dependent
Method: (§1) FIG. 3 represents the effect of Q3GA on the expression levels of p53, pS6K, and p21 proteins in HDFs and HUVECs treated with adriamycin. Cells were treated with the indicated concentrations of Q3GA for 1 h prior to adriamycin treatment and incubated for 4 h. Proteins from cells were extracted and separated. The expression levels of each protein were analyzed by Western blotting. Representative data of 3 independent experiments are shown. NT, not treated with adrimycin; ADR, adriamcyin; C, control; D, dimethyl sulfoxide; N, 5 mM N-acetylcysteine; R, 500 nM rapamycin.
(§2) Each cells were divided into a 60 mm culture dish to the cell number of 1×10^5, and then cultured at 37° C. in a 5% CO2 incubator. […] The amount of the protein in the solution was quantified by bicinchoninic acid (BCA) method (Pierce Biotechnology Inc., Rockford Ill., USA) by using bovine serum albumin as a standard protein.
(§3) Protein (30 μg) was separated by being electrophoresed through a 10% SDS-polyacrylamide gel. […] The membrane was washed five times with TTBS for every 5 min, and then the amounts of p53, p21 and pS6 were measured by using an enhanced chemiluminescence solution. The amount of the specific protein reacted with each antibody was measured by using a LAS-3000 imaging system (Fujifilm Corp., Stanford, Conn., USA). […]

[2] = tested on: p21; assay: Western blot of p21 in adriamycin-treated HUVECs; type: cell-based, human; conditions: Q3GA 1 h prior to adriamycin 500 nM 4 h, concentration-dependent
Method: as §1, §2, §3

[3] = tested on: p53; assay: Western blot of p53 in adriamycin-treated HDFs; type: cell-based, human; conditions: Q3GA 1 h prior to adriamycin 500 nM 4 h, concentration-dependent
Method: as §1, §2, §3

[4] = tested on: p53; assay: Western blot of p53 in adriamycin-treated HUVECs; type: cell-based, human; conditions: Q3GA 1 h prior to adriamycin 500 nM 4 h, concentration-dependent
Method: as §1, §2, §3

[5] = tested on: human dermal fibroblasts (HDFs); assay: Intracellular ROS (DCF fluorescence, flow cytometry) in adriamycin-treated HDFs; type: cell-based; conditions: Q3GA 10 μg/ml, 3 days
Method: (§4) FIG. 4 represents the effect of Q3GA on intracellular ROS levels increased by adriamycin treatment in HDFs. Young cells (1.5×10^5) treated with or without adrimcyin were seeded in 60 mm culture dishes and incubated for 24 h. Following treatment of cells with 10 µg/mL of Q3GA, 0.5% DMSO, 5 mM NAC, or 500 nM rapamcyin for 3 days, cells were loaded with 250 µM H2DCFDA for 20 min. The DCF fluorescence intensity of each population of 10,000 cells was measured by flow cytometry. Representative data from three independent experiments are shown. Median fluorescence intensities were obtained and compared. Values are means±SDs from 3 independent experiments. NT, not treated with adrimycin; ADR, adriamcyin; C, control; D, dimethyl sulfoxide; N, 5 mM N-acetylcysteine; R, 500 nM rapamycin. *p<0.05 vs DMSO.
(§5) Each cells were divided into a 100 mm culture dish to the cell number of 1.5×10^5, and then cultured at 37° C. in a 5% CO2 incubator for 3 days. The cells were washed two times with DMEM medium containing antibiotics, and then adriamycin 500 nM was treated thereto for 4 hours. The cells were separated by treating trypsin-EDTA solution (2.5%), and then divided again into a 60 mm culture dish to the cell number of 1×10^5 followed by culturing at 37° C. in a 5% CO2 incubator. […] ROS was measured by using BD FACS Canto II flow cytometry (BD Biosciences, San Jose, Calif.).

[6] = tested on: human umbilical vein endothelial cells (HUVECs); assay: Replicative senescence, SA-β-gal activity staining, old HUVECs; type: cell-based; conditions: old HUVECs (PD>50); increasing Q3GA concentration; 3 days; concentration-dependent
Method: FIG. 7 represents the effect of Q3GA on replicative senescence of HUVECs. […] Cellular senescence was assessed by SA-β-gal activity staining. Representative pictures of 3 independent experiments are shown. Percentages of SA-β-gal positive cells were measured. Values are means±SDs from 3 independent experiments. O, old cells; D, dimethyl sulfoxide; N, 5 mM N-acetylcysteine; R, 500 nM rapamycin. *p<0.05 or **p<0.05 vs DMSO.
(§6) HDFs in DMEM with 10% FBS and 1% antibiotics (penicillin 10,000 unit/mL and streptomycin […]) were seeded at 1×10^5 cells per 100 mm culture plate and incubated at 37° C. in 5% CO2 humidified air. When subcultures reached 80-90% confluence, serial passaging was performed by trypsinization. HUVECs in EGM-2 media were cultured under the same conditions. The number of population doublings (PDs) was monitored for further experiments. PD was calculated using the geometric equation: PD=log 2F/log 2I (F, final cell number; I, initial cell number). HDFs in PD<35 and HUVECs in PD<30 were used for adriamycin-induced cellular senescence. HDFs in PD>75 and HUVECs in PD>50 were used as old cells under replicative senescence.
The effect of single component on cellular senescence was examined by SA-β-gal activity staining. Each single component was treated in a 24-well culture plate or a 12-well culture plate for 3 days, and then the cells were washed with phosphate buffer. […]

[7] = tested on: human dermal fibroblasts (HDFs); assay: Adriamycin-induced cellular senescence, SA-β-gal activity staining, HDFs; type: cell-based; conditions: 3 days
Method: (§7) FIG. 1 represents the effect of quercetin-3-O-β-D-glucuronide (Q3GA) on adriamycin-induced cellular senescence in human dermal fibroblasts (HDFs). Cells treated with 500 nM adriamycin for 4 h were seeded at 500 cells/well in 96 well plates. After treatment with increasing concentrations of Q3GA, cells were incubated for 3 days and cellular senescence assessed by SA-β-gal activity staining. SA-β-gal activity staining (Left) and percentages of SA-β-gal positive cells in HDFs (Right). Representative SA-β-gal staining pictures of 3 independent experiments are shown. Values are means±SDs from 3 independent experiments measured in triplicates. C, control; D, dimethyl sulfoxide; N, 5 mM N-acetylcysteine; R, 500 nM rapamycin. *p<0.05 or **p<0.01 vs DMSO.
as §6, with “HDFs in PD>75 and HUVECs in PD>50 were used as old cells under replicative senescence.” left out

[8] = tested on: human umbilical vein endothelial cells (HUVECs); assay: Adriamycin-induced cellular senescence, SA-β-gal activity staining, HUVECs; type: cell-based; conditions: 3 days
Method: as §7, with “FIG. 2” for “FIG. 1”, “human umbilical vein endothelial cells (HUVECs).” for “human dermal fibroblasts (HDFs).”, “at 1,000” for “at 500”, “in HUVECs” for “in HDFs”
as §6, with “HDFs in PD<35 and HUVECs in PD<30 were used for adriamycin-induced cellular senescence. HDFs in PD>75 and HUVECs in PD>50 were used as old cells under replicative senescence.” left out

[9] = tested on: human umbilical vein endothelial cells (HUVECs); assay: Intracellular ROS (DCF fluorescence, flow cytometry) in adriamycin-treated HUVECs; type: cell-based; conditions: Q3GA 10 μg/ml, 3 days
Method: as §4, with “FIG. 5” for “FIG. 4”, “in HUVECs.” for “in HDFs.”
as §5

[10] = tested on: human dermal fibroblasts (HDFs); assay: Replicative senescence, SA-β-gal activity staining, old HDFs; type: cell-based; conditions: old HDFs (PD>75); increasing Q3GA concentration; 3 days; concentration-dependent
Method: FIG. 6 represents the effect of Q3GA on replicative senescence of HDFs. Old cells (3×10^4/well) were seeded in 6 well plates and incubated with or without 10 µg/mL of Q3GA for 3 days. Cellular senescence was assessed by SA-β-gal activity staining. Representative pictures of 3 independent experiments are shown. Percentages of SA-β-gal positive cells were measured. Values are means±SDs from 3 independent experiments. O, old cells; D, dimethyl sulfoxide; N, 5 mM N-acetylcysteine; R, 500 nM rapamycin. *p<0.05 or **p<0.05 vs DMSO.
as §6
The effect of single component on cellular senescence was examined by SA-β-gal activity staining. […]

[11] = Q3GA 10 μg/ml, adriamycin 500 nM 4 h
[12] = increasing concentrations of Q3GA

## O=C(O)[C@H]1O[C@@H](Oc2c(-c3ccc(O)c(O)c3)oc3cc(O)cc(O)c3c2=O)[C@H](O)[C@@H](O)[C@@H]1O [Q3GA, quercetin-3-O-β-D-glucuronide]
[1]
  level of p21 protein increased by adriamycin: reduced
[2]
  level of p21 protein increased by adriamycin: reduced
[3]
  level of p53 protein increased by adriamycin: reduced
[4]
  level of p53 protein increased by adriamycin: reduced
[5]
  intracellular ROS levels augmented by adriamycin (DCF fluorescence intensity): decreased intracellular ROS levels
[6]
  SA-β-gal activity under replicative senescence: decreased SA-β-gal activity
[7]; [11]
  SA-β-gal activity staining increased by adriamycin: reduced by Q3GA treatment
[7]; [12]
  SA-β-gal activity increased by adriamycin, concentration dependence: reduced as Q3GA concentration was increased
[8]; [11]
  SA-β-gal activity staining increased by adriamycin: reduced by Q3GA treatment
[8]; [12]
  SA-β-gal activity increased by adriamycin, concentration dependence: reduced as Q3GA concentration was increased
[9]
  intracellular ROS levels augmented by adriamycin (DCF fluorescence intensity): decreased intracellular ROS levels
[10]
  SA-β-gal activity under replicative senescence: decreased SA-β-gal activity
